This note sets out measurements from EPA's ToxValDB 9.5 (doi:10.2903/j.efsa.2009.298r).

Converted amounts (≈) assume the structure as drawn.

For orientation: NOAEL means the highest tested level that showed no adverse finding.

One data set relates to Allium cepa. To be noted: not reported; seedling emergence.
The subject of another data set is Daphnia magna. The note with it: chronic/long-term; duration: 21 days; reproduction.
Another data set deals with Folsomia candida. To be noted: chronic/long-term.
A further data set has as its system Apis mellifera. To be noted: acute, mortality.
For the next data set, the system named is Tagia sp. To be noted: mortality.
The next data set relates to Canidae. To be noted: oral, Dog Other, organ weight.

With `CCCCC(C#N)(Cn1cncn1)c1ccc(Cl)cc1` (configuration not stated) [Myclobutanil], the LEL in the data set with Allium cepa was over 300 g/ha; in the data set with Typhlodromus pyri (acute, duration: 14 days, mortality) it was 36 g/ha; in the data set on Typhlodromus pyri (not reported, reproduction), 36 g/ha. The LC50 with Oncorhynchus mykiss (acute, duration: 96 hours, mortality) was 2 µg/mL (≈ 6.93 µM); in the data set with Colinus virginianus (acute, oral, diet, mortality), over 567 mg/kg-day; in the data set with Anas platyrhynchos (short-term, oral, feed, mortality) it was over 1540 mg/kg-day; in the data set on Tagia sp. (acute), 250 mg/kg. Further, the NOEC is 0.2 mg/L in the data set on Oncorhynchus mykiss (chronic/long-term, duration: 21 days, growth); 1 mg/L with Daphnia magna; 20.5 mg/kg with Folsomia candida; 24.2 mg/kg-day with Colinus virginianus (reproduction developmental); 31.6 mg/kg-day in the data set with Anas platyrhynchos (reproductive); 10.3 mg/kg in the data set on Tagia sp. (chronic/long-term, duration: 28 days). Also, the LD50 with Colinus virginianus (acute, oral, mortality) is 510 mg/kg-day; with Apis mellifera (duration: 72 hours, dermal) it was over 39.6 µg/piece; with Apis mellifera (oral, unspecified) it was over 33.9 µg/piece; in the data set on Rattus norvegicus (acute, oral, M, mortality), 1600 mg/kg-day. Besides, the NOAEL with Rattus norvegicus (chronic, duration: 2 years, histopathology: nonneoplastic) was 2.5 mg/kg-day; in the data set on Rattus norvegicus (developmental, development) it was 31 mg/kg-day; with Canidae (chronic, duration: 1 years), 3.09 mg/kg-day; with Canidae (subchronic, duration: 90 days), 3.09 mg/kg-day. In addition, in the data set with Rattus norvegicus (reproduction developmental, reproduction), the NOEL is 16 mg/kg-day.
